Results as given in patent publication US20260083735A1, “ABHD6 ANTAGONIST” (ONO PHARMACEUTICAL CO., LTD., priority 2022, published 2026).

How the values were obtained:
[1] = target: T1, recombinant human ABHD6 (33-337) (Homo sapiens, UniProt Q9BV23); assay: Evaluation of ABHD6 enzyme inhibitory activity (arachidonic acid production from 1-arachidonoyl glycerol, RapidFire-MS); format: biochemical; settings: recombinant human GST-tagged ABHD6 (33-337), substrate 1-arachidonoyl glycerol 10 μmol/L, 1 hour, room temperature
T1 construct: recombinant human ABHD6 (33-337); GST; made in house; host or cells: E. coli
T1 sequence (Q9BV23 33-337): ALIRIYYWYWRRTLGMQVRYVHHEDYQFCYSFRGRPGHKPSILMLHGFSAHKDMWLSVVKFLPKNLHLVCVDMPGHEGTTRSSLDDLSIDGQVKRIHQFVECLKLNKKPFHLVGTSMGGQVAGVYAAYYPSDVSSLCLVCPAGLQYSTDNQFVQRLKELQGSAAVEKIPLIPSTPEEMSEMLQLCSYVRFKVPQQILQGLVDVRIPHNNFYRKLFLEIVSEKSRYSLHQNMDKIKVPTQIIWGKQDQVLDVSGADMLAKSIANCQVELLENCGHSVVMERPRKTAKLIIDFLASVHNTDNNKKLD
Method: The recombinant human ABHD6 (33-337) was a GST-tagged ABHD6, and one which was expressed in E. coli, then purified with a Glutathione-Sepharose 4B resin, and then concentrated was used. The enzyme reaction was carried out at room temperature using a 384-well microplate made of polypropylene, and wells to which no enzyme was added were designated as a blank group.
One hour after the start of the enzyme reaction, methanol containing, as an internal standard substance, arachidonic acid-d8 (Cayman Chemical) and 1% formic acid was added to stop enzymatic reaction. The upper part of the enzyme reaction plate was sealed with aluminum, and centrifugation was performed at 560 g for 5 minutes at room temperature. Then, arachidonic acid as an enzyme reaction product and arachidonic acid-d8 as the internal standard substance were quantified with RapidFire (registered trademark)-Mass Spectrometry system.

human ABHD6 = target: T2, human ABHD6 (Homo sapiens, UniProt Q9BV23); assay: Measurement of binding affinity for human ABHD6 (BRET, HEK293 cells expressing NanoLuc-human ABHD6 fusion protein); settings: fluorescent probe 100 nmol/L
T2 construct: expressed in transfected cells; host or cells: HEK293
T2 sequence (Q9BV23 1-337): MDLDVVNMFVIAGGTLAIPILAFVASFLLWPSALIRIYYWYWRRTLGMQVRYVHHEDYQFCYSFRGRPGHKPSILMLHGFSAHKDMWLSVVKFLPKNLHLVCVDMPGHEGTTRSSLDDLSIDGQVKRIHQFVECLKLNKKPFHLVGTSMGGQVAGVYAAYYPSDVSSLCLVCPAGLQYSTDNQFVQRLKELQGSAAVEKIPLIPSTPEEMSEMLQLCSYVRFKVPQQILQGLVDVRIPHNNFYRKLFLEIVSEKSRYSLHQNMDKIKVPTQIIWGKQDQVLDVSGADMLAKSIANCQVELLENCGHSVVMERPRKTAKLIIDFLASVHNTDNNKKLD
Method: The binding affinity of the test compound for human ABHD6 was measured using bioluminescence resonance energy transfer (hereinafter, abbreviated as BRET) as an index. The bioluminescence resonance energy transfer is induced by the proximity of a probe molecule and a NanoLuc-human ABHD6 fusion protein, which is caused by allowing a fluorescent probe molecule and a test compound to act in a competitive manner using HEK293 cells forcibly expressing the NanoLuc-human ABHD6 fusion protein.
The test compound and the compound described in Example 2 as a control substance were each dissolved in dimethyl sulfoxide (DMSO) to prepare a 10 mmol/L solution. The prepared 10 mmol/L solution was thawed at the time of use, serially diluted with DMSO, and subjected to an experiment.
HEK293 cells expressing a NanoLuc-human ABHD6 fusion protein were statically cultured at 37° C. in the presence of 5% CO2 using inactivated (56° C., 30 min) 9.8 vol % non-dialyzed-FBS (containing 0.5 vol % GENETICIN and 1% penicillin-streptomycin). The subculture was performed by the following method.
The culture medium was removed, and the cells were washed once with phosphate buffered saline without Ca^2+ and Mg^2+. An appropriate amount of trypsin-EDTA was added, and the cells were incubated at room temperature. After the cells were detached, a culture medium in a volume 10-fold the volume of trypsin-EDTA (0.05%) was added to stop an enzyme reaction. The cells were collected in a centrifuge tube, and centrifuged at room temperature for 3 minutes at 120 g, and the supernatant was removed. The cells were suspended in an appropriate amount of culture medium and seeded in a culture flask.
HEK293 cells expressing a NanoLuc-human ABHD6 fusion protein were prepared, and then cryopreserved so as to be 5.0×10^6 cells/mL/vial in CELLBANKER2, and the cells were subjected to an experiment. HBSS (+) containing 20 mmol/L HEPES (pH 7.3) and 0.1% BSA was prepared and used as an assay buffer. The cells were thawed and suspended in the assay buffer to prepare a cell suspension of 2×10^5 cells/mL. […] The plate was allowed to stand at 37° C. for 30 minutes in the presence of 5% CO2. Then, a probe molecule (10 mmol/L in DMSO) having a fluorophore was diluted with the assay buffer so as to have a final concentration of 100 nmol/L, and added to the assay plate in an amount of 15 μL each. Further, this was allowed to stand at 37° C. for 30 minutes in the presence of 5% CO2. Then, a Nano-Glo (registered trademark) Vivazine (trademark) substrate (Promega Corporation) was diluted with the assay buffer according to the method described in the protocol, and added to the assay plate in an amount of 10 μL each, and this was allowed to stand at room temperature for 1 hour. Thereafter, the luminescence and fluorescence intensity were measured using a GloMax (registered trademark) discover system. The ratio between the emission intensity through the 450 nm bandpass filter and the fluorescence intensity through the 600 nm longpass filter was defined as the measured value of each sample. […] The measured value of the group not containing the compound was defined as 0% inhibition. The IC50 value of the test compound was determined from the measured value at each test compound concentration.

| SMILES | IC50 [1] [nM] | IC50 (human ABHD6) [nM] |
| --- | --- | --- |
| Cc1ccc(C(=O)N2C[C@@H]3CC[C@@H](Oc4ccc(Br)nn4)[C@@H]3C2)s1 [Example 1-1, [(3aS,4R,6aR)-4-[(6-Bromo-3-pyridazinyl)oxy]hexahydrocyclopenta[c]pyrrol-2(1H)-yl](5-methyl-2-thienyl)methanone] | 1 | 11 |
| O=C(c1ccc(C(F)F)s1)N1C[C@@H]2CC[C@@H](Oc3ccc(Br)nn3)[C@@H]2C1 [Example 1-7, [(3aS,4R,6aR)-4-[(6-Bromo-3-pyridazinyl)oxy]hexahydrocyclopenta[c]pyrrol-2(1H)-yl][5-(difluoromethyl)-2-thienyl]methanone] | < 1 | 20 |
| Cn1ncc2cc(C(=O)N3C[C@@H]4CC[C@@H](Oc5ccc(Br)nn5)[C@@H]4C3)sc21 [Example 1-10, [(3aS,4R,6aR)-4-[(6-Bromo-3-pyridazinyl)oxy]hexahydrocyclopenta[c]pyrrol-2(1H)-yl](1-methyl-1H-thieno[2,3-c]pyrazol-5-yl)methanone] | < 1 | 4 |
| O=C(c1ccc(OCCF)s1)N1C[C@@H]2CC[C@@H](Oc3ccc(Br)nn3)[C@@H]2C1 [Example 1-19, [(3aS,4R,6aR)-4-[(6-Bromo-3-pyridazinyl)oxy]hexahydrocyclopenta[c]pyrrol-2(1H)-yl][5-(2-fluoroethoxy)-2-thienyl]methanone] | < 1 | 10 |
| COc1cc(Cl)nnc1O[C@@H]1CC[C@H]2CN(C(=O)c3cc4c(s3)CCOC4)C[C@H]21 [Example 2-5, [(3aS,4R,6aR)-4-[(6-Chloro-4-methoxy-3-pyridazinyl)oxy]hexahydrocyclopenta[c]pyrrol-2(1H)-yl](6,7-dihydro-4H-thieno[3,2-c]pyran-2-yl)methanone] | 2 | 9 |

Further lines, results first:

| IC50 [1] [nM] | IC50 (human ABHD6) [nM] | SMILES |
| --- | --- | --- |
| < 1 | 4 | O=C(c1cc2nn(C3CC3)cc2s1)N1C[C@@H]2CC[C@@H](Oc3ccc(Br)nn3)[C@@H]2C1 [Example 1-4, [(3aS,4R,6aR)-4-[(6-Bromo-3-pyridazinyl)oxy]hexahydrocyclopenta[c]pyrrol-2(1H)-yl](2-cyclopropyl-2H-thieno[3,2-c]pyrazol-5-yl)methanone] |
| < 1 | 5 | COC(=O)N1CCc2sc(C(=O)N3C[C@@H]4CC[C@@H](Oc5ccc(Br)nn5)[C@@H]4C3)cc2C1 [Example 1-13] |
| 1 | 9 | O=C(c1cc2c(s1)CCOC2)N1CC2CCC(Oc3nnc(Cl)c4ccsc34)C2C1 (stereo not shown) [Example 2-3, {4-[(4-Chlorothieno[2,3-d]pyridazin-7-yl)oxy]hexahydrocyclopenta[c]pyrrol-2(1H)-yl}(6,7-dihydro-4H-thieno[3,2-c]pyran-2-yl)methanone] |
| < 1 | 1 | O=C(c1cc2c(s1)CCOC2)N1C[C@@H]2CC3(CC3)[C@@H](Oc3ccc(Br)nn3)[C@@H]2C1 [Example 4, [(3aS,4S,6aR)-4-[(6-Bromo-3-pyridazinyl)oxy]tetrahydro-1H-spiro[cyclopenta[c]pyrrole-5,1′-cyclopropan]-2(3H)-yl](6,7-dihydro-4H-thieno[3,2-c]pyran-2-yl)methanone] |
| 2 | 3 | O=C(c1cc2c(s1)CCOC2)N1C[C@@H]2CC[C@@H](Oc3ccc(Br)nn3)[C@]2(O)C1 [Example 7, [(3aR,4R,6aS)-4-[(6-Bromo-3-pyridazinyl)oxy]-3a-hydroxyhexahydrocyclopenta[c]pyrrol-2(1H)-yl](6,7-dihydro-4H-thieno[3,2-c]pyran-2-yl)methanone] |
| < 1 | 2 | O=C(c1cc2c(s1)CCOC2)N1C[C@@H]2C[C@H](F)[C@@H](Oc3ccc(Br)nn3)[C@@H]2C1 [Example 9, [(3aS,4S,5S,6aR)-4-[(6-Bromo-3-pyridazinyl)oxy]-5-fluorohexahydrocyclopenta[c]pyrrol-2(1H)-yl](6,7-dihydro-4H-thieno[3,2-c]pyran-2-yl)methanone] |
